Results taken from ChEMBL document CHEMBL5500364, “Design, synthesis, and biological evaluation of some 2-(3-oxo-5,6-diphenyl-1,2,4-triazin-2(3H)-yl)-N-phenylacetamide hybrids as MTDLs for Alzheimer's disease therapy” (Eur J Med Chem, 2024).
Active and inactive are the calls of the source. No cut-off for these calls is given here.

Tests used:
Acetylcholinesterase = Acetylcholinesterase (Homo sapiens, UniProt P22303); test: Inhibition of human erythrocyte AChE using acetylthiocholine iodide as substrate preincubated for 30 mins followed by substrate addition by DTNB based Ellman's colorimetric method
Cholinesterase = Cholinesterase (Homo sapiens, UniProt P06276); test: Inhibition of human BChE using butyrylthiocholine iodide as substrate preincubated for 30 mins followed by substrate addition by DTNB based Ellman's colorimetric method
[1] = target: Dual specificity tyrosine-phosphorylation-regulated kinase 1A (Homo sapiens, UniProt Q13627); test: Inhibition of Dyrk1A (unknown origin) incubated for 1 hrs in presence of [gamma-33P]-ATP by microplate scintillation counter based radiometric protein kinase assay
Beta-secretase 1 = Beta-secretase 1 (Homo sapiens, UniProt P56817); test: Inhibition of human BACE-1 using (7-Methoxycoumarin-4-acetyl-[Asn670, Leu671]-Amyloid beta/A4 precursor protein 770 fragments 667-676- (2, 4-dinitrophenyl) Lys-Arg-Arg amide trifluoroacetate salt as substrate incubated for 2 hrs by FRET-based analysis
[2] = Permeability of compound in PBS at pH 7.4 incubated for 18 hrs by PAMPA-BBB assay
[3] = Neurotoxicity in human SH-SY5Y cells assessed as reduction in cell population at 80 uM incubated for 24 hrs by MTT assay
SH-SY5Y [4] = test: (§1) Neuroprotective activity against amyloid-beta(1 to 42) induced oxidative stress in differentiated human SH-SY5Y cells assessed as increase in cell viability at 40 uM preincubated with amyloid-beta (1 to 42 ) for 24 hrs followed by compound addition and measured after 48 hrs by MTT assay relative to control; format: functional
SH-SY5Y [5] = test: as §1, with “72” for “48”; format: functional
[6] = target: Amyloid-beta precursor protein (Homo sapiens) (UniProt P05067); test: Inhibition of amyloid beta (1 to 42) (unknown origin) self aggregation ar 5 to 20 uM incubated for 48 hrs by Thioflavin T fluorescence assay relative to control; settings: dose 5-20 µM
[7] = target: Amyloid-beta precursor protein (Homo sapiens) (UniProt P05067); test: Inhibition of human AchE-induced amyloid beta (1 to 42) (unknown origin) aggregation at 5 to 20 uM incubated for 48 hrs by Thioflavin T fluorescence assay relative to control; settings: dose 5-20 µM
[8] = target: Amyloid-beta precursor protein (Homo sapiens) (UniProt P05067); test: Inhibition of amyloid beta (1 to 42) (unknown origin) aggregation assessed as maximum peak height of aggregates incubated for 48 hrs by AFM analysis
[9] = target: Amyloid-beta precursor protein (Homo sapiens) (UniProt P05067); test: Inhibition of amyloid beta (1 to 42) (unknown origin) aggregation assessed as reduction in amyloid-beta aggregates at 50 uM incubated for 48 hrs by TEM analysis
[10] = target: Amyloid-beta precursor protein (Homo sapiens) (UniProt P05067); test: Inhibition of amyloid beta (1 to 42) (unknown origin) aggregation assessed as appearance of thinner aggregates at 50 uM incubated for 48 hrs by TEM imaging analysis
[11] = target: Amyloid-beta precursor protein (Homo sapiens) (UniProt P05067); test: Inhibition of amyloid beta (1 to 42) (unknown origin) aggregation assessed as reduction in size of amyloid-beta aggregates measured within 48 hrs by SEM imaging analysis
Rattus norvegicus [12] = test: Antialzheimer activity against scopolamine-induced amnesia in male Wistar rat model assessed as restoration of memory function by measuring percentage spontaneous alteration at 5 mg/kg, po preadministered with compound for 30 mins starting from 7 th day trail followed by scopolamine administration and measured after 5 mins by Y maze test; format: functional, organism-based; settings: time 35.0 min
Rattus norvegicus [13] = test: Antialzheimer activity against scopolamine-induced amnesia in male Wistar rat model assessed as increase in total arm enteries at 5 mg/kg, po preadministered with compound for 30 mins starting from 7 th day trail followed by scopolamine administration and measured after 5 mins by Y maze test; format: functional, organism-based; settings: time 35.0 min
Rattus norvegicus [14] = test: Reversal of amyloid beta (1 to 42 residues) induced cognitive impairment in Wistar rat assessed as reduction in escape latency time at 5 mg/kg, po pretreated with amyloid beta for 7 days followed by compound administration for 9 days and measured after 1 days by Morris water maze test; format: functional, organism-based; settings: time 10.0 day
Rattus norvegicus [15] = test: Reversal of amyloid beta (1 to 42 residues) induced cognitive impairment in Wistar rat assessed as increase in platform crossings at 5 mg/kg, po pretreated with amyloid beta for 7 days followed by compound administration for 9 days and measured after 1 days by Morris water maze test; format: functional, organism-based; settings: time 10.0 day
Rattus norvegicus [16] = test: (§2) Reversal of amyloid beta (1 to 42 residues) induced cognitive impairment in Wistar rat assessed as reduction in escape latency time at 5 mg/kg, po pretreated with amyloid beta for 7 days followed by compound administration for 9 days and measured after 5 days by Morris water maze test; format: functional, organism-based; settings: time 14.0 day
Rattus norvegicus [17] = test: Reversal of amyloid beta (1 to 42 residues) induced cognitive impairment in Wistar rat assessed as increase in platform crossings at 5 mg/kg, po pretreated with amyloid beta for 7 days followed by compound administration for 9 days and measured after 5 days by Morris water maze test; format: functional, organism-based; settings: time 14.0 day
Rattus norvegicus [18] = test: as §2, with “focal gliosis in cerebral cortex” for “escape latency time”, “Nissl's staining based analysis” for “Morris water maze test”; format: functional, organism-based; settings: time 14.0 day
Rattus norvegicus [19] = test: as §2, with “neural dispersion at DG region in hippocampus” for “escape latency time”, “Nissl's staining based analysis” for “Morris water maze test”; format: functional, organism-based; settings: time 14.0 day
Rattus norvegicus [20] = test: as §2, with “appearance of pyknotic neuron bodies in hippocampus” for “escape latency time”, “Nissl's staining based analysis” for “Morris water maze test”; format: functional, organism-based; settings: time 14.0 day
Rattus norvegicus [21] = test: (§3) Reversal of amyloid beta (1 to 42 residues) induced cognitive impairment in Wistar rat assessed as decrease in BACE-1 protein level at 5 mg/kg, po pretreated with amyloid beta for 7 days followed by compound administration for 9 days and measured after 5 days by Western blot analysis; format: functional, organism-based; settings: time 14.0 day
Rattus norvegicus [22] = test: Reversal of amyloid beta (1 to 42 residues) induced cognitive impairment in Wistar rat assessed as decrease in alpha-synuclein protein level at 5 mg/kg, po pretreated with amyloid beta for 7 days followed by compound administration for 9 days and measured after 5 days by Western blot analysis; format: functional, organism-based; settings: time 14.0 day
Rattus norvegicus [23] = test: Reversal of amyloid beta (1 to 42 residues) induced cognitive impairment in Wistar rat assessed as decrease in APP protein level at 5 mg/kg, po pretreated with amyloid beta for 7 days followed by compound administration for 9 days and measured after 5 days by Western blot analysis; format: functional, organism-based; settings: time 14.0 day
Rattus norvegicus [24] = test: Reversal of amyloid beta (1 to 42 residues) induced cognitive impairment in Wistar rat assessed as decrease in Tau protein level at 5 mg/kg, po pretreated with amyloid beta for 7 days followed by compound administration for 9 days and measured after 5 days by Western blot analysis; format: functional, organism-based; settings: time 14.0 day
Rattus norvegicus [25] = test: as §3, with “BACE-1” for “BACE-1 protein”, “level in DG region of hippocampus” for “level”, “immuno histochemical” for “Western blot”; format: functional, organism-based; settings: time 14.0 day
Rattus norvegicus [26] = test: as §3, with “BACE-1” for “BACE-1 protein”, “level in CA1 region of hippocampus” for “level”, “immuno histochemical” for “Western blot”; format: functional, organism-based; settings: time 14.0 day
Rattus norvegicus [27] = test: as §3, with “BACE-1” for “BACE-1 protein”, “level in CA3 region of hippocampus” for “level”, “immuno histochemical” for “Western blot”; format: functional, organism-based; settings: time 14.0 day
Rattus norvegicus [28] = test: as §3, with “amyloid-beta” for “BACE-1 protein”, “level in DG region of hippocampus” for “level”, “immuno histochemical” for “Western blot”; format: functional, organism-based; settings: time 14.0 day
Rattus norvegicus [29] = test: as §3, with “amyloid-beta” for “BACE-1 protein”, “level in CA1 region of hippocampus” for “level”, “immuno histochemical” for “Western blot”; format: functional, organism-based; settings: time 14.0 day
Rattus norvegicus [30] = test: as §3, with “amyloid-beta” for “BACE-1 protein”, “level in CA3 region of hippocampus” for “level”, “immuno histochemical” for “Western blot”; format: functional, organism-based; settings: time 14.0 day

Sequence of Cholinesterase (P06276 whole entry): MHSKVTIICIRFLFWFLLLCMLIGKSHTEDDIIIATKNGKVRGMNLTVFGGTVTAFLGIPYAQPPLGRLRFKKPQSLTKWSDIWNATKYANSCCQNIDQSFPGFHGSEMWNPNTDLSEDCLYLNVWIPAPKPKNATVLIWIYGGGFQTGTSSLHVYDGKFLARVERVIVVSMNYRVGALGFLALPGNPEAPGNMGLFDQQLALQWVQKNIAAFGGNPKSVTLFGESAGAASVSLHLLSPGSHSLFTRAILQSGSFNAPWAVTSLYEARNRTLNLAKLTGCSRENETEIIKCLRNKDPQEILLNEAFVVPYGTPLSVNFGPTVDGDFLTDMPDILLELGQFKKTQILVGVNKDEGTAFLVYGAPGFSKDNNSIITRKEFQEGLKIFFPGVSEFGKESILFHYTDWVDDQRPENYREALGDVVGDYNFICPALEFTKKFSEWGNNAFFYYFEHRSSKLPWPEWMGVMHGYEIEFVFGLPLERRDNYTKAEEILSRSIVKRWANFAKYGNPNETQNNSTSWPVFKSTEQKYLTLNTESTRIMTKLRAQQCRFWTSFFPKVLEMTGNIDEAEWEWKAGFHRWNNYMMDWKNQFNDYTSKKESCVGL
Sequence of Acetylcholinesterase (P22303 whole entry): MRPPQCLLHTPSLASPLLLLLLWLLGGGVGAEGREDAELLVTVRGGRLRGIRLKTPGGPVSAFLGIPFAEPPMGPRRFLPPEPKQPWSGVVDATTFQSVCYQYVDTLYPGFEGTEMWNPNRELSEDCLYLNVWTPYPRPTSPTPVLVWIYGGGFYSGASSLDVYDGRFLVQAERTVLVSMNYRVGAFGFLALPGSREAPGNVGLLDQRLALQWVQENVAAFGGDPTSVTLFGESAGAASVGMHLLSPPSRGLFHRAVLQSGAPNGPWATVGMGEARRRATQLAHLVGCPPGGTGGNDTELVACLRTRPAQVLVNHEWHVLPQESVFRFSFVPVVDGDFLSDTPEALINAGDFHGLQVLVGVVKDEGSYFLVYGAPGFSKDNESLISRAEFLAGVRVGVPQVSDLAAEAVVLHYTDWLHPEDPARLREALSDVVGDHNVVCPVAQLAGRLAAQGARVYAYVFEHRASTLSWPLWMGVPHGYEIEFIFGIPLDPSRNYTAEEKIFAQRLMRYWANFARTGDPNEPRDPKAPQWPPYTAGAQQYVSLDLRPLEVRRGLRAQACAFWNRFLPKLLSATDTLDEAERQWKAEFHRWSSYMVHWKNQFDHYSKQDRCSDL
Sequence of Amyloid-beta precursor protein (Homo sapiens) (P05067 whole entry): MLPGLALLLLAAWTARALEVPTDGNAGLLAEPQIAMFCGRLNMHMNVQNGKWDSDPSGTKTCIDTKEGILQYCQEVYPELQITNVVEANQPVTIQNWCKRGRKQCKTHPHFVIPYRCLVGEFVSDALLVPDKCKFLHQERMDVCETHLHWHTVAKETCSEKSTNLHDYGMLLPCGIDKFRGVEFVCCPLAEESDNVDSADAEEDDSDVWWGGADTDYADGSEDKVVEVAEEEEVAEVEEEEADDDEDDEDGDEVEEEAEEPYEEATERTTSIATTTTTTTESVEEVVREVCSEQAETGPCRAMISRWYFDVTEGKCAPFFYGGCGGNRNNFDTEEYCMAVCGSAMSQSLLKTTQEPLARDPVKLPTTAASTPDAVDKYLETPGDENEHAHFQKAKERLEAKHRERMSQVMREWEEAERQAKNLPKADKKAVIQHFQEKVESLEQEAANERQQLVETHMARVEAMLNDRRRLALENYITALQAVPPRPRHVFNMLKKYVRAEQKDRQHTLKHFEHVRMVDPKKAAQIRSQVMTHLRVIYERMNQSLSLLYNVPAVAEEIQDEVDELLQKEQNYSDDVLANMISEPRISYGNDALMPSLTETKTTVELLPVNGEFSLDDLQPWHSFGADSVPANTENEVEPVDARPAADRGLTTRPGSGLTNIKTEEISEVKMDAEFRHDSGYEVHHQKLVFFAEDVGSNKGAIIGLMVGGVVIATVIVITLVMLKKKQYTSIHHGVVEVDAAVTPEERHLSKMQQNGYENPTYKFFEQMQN
Sequence of Beta-secretase 1 (P56817 whole entry, the tested form may be a part): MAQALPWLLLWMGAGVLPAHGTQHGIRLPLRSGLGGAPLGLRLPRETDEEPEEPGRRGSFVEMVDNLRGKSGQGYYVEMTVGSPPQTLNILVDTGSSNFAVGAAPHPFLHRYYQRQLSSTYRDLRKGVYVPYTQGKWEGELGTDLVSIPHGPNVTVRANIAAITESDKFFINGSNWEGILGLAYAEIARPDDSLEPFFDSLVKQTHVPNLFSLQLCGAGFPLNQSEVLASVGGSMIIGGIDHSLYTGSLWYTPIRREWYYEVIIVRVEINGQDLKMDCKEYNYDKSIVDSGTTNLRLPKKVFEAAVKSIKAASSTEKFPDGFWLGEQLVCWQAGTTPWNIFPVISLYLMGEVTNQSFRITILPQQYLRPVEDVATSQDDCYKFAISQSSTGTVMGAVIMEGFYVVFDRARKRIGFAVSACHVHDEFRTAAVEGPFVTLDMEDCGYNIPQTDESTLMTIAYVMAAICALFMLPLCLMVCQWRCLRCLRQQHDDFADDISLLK

SMILES	IC50 (Acetylcholinesterase) [µM]	IC50 (Cholinesterase) [µM]	IC50 [1] [µM]	IC50 (Beta-secretase 1) [µM]	also measured
COc1cc(NC(=O)Cn2nc(-c3ccccc3)c(-c3ccccc3)nc2=O)cc(OC)c1OC	0.708	> 10	> 10	0.648	Papp at 18 h [2]: 5.81 ×10⁻⁶ cm/s; Activity [3]: Non-Toxic; Activity (SH-SY5Y [4]): 71%; Activity (SH-SY5Y [5]): 78%; inhibition [6]: 19.3%; inhibition [7]: 33.6%
O=C(Cn1nc(-c2ccccc2)c(-c2ccccc2)nc1=O)Nc1cccc(Cl)c1	1.16	> 10	> 10	1.44	–
O=C(Cn1nc(-c2ccccc2)c(-c2ccccc2)nc1=O)Nc1ccc([N+](=O)[O-])cc1	1.07	> 10	> 10	1.32	–
O=C(Cn1nc(-c2ccccc2)c(-c2ccccc2)nc1=O)Nc1ccc([N+](=O)[O-])cc1Cl	0.699	> 10	2	1.83	–
O=C(Cn1nc(-c2ccccc2)c(-c2ccccc2)nc1=O)Nc1ccc(O)cc1	1.15	> 10	> 10	1.62	–
COc1cc(/C=C/C(=O)CC(=O)/C=C/c2ccc(O)c(OC)c2)ccc1O	–	–	–	–	inhibition [6]: 21.5%; Activity [8]: 206 nm; inhibition [9]: Active; inhibition [10]: Active; inhibition [11]: Active
O=C(Cn1nc(-c2ccccc2)c(-c2ccccc2)nc1=O)Nc1cccc([N+](=O)[O-])c1	1.12	> 10	> 10	1.25	–
O=C(Cn1nc(-c2ccccc2)c(-c2ccccc2)nc1=O)Nc1ccccc1O	0.753	> 10	> 10	0.953	–
O=C(Cn1nc(-c2ccccc2)c(-c2ccccc2)nc1=O)Nc1ccc(F)cc1F	1.16	> 10	> 10	1.44	–
O=C(Cn1nc(-c2ccccc2)c(-c2ccccc2)nc1=O)Nc1cc(Br)cc(Br)c1	0.772	> 10	> 10	1.25	–
O=C(Cn1nc(-c2ccccc2)c(-c2ccccc2)nc1=O)Nc1ccc(Br)cc1	0.941	> 10	> 10	1.86	–
Cc1ccccc1NC(=O)Cn1nc(-c2ccccc2)c(-c2ccccc2)nc1=O	0.953	> 10	> 10	0.742	–
O=C(Cn1nc(-c2ccccc2)c(-c2ccccc2)nc1=O)Nc1ccc(F)cc1	0.836	> 10	> 10	0.694	–
N#Cc1ccccc1NC(=O)Cn1nc(-c2ccccc2)c(-c2ccccc2)nc1=O	1.86	> 10	> 10	1.48	–
O=C(Cn1nc(-c2ccccc2)c(-c2ccccc2)nc1=O)Nc1ccccc1Cl	0.719	> 10	> 10	0.609	–
N#Cc1cccc(NC(=O)Cn2nc(-c3ccccc3)c(-c3ccccc3)nc2=O)c1	1.25	> 10	> 10	1.1	–
O=C(Cn1nc(-c2ccccc2)c(-c2ccccc2)nc1=O)Nc1ccccc1[N+](=O)[O-]	0.734	> 10	> 10	0.912	–
COc1cc2c(cc1OC)C(=O)C(CC1CCN(Cc3ccccc3)CC1)C2 (centres undefined) [DONEPEZIL]	–	–	–	–	Activity [3]: Non-Toxic; Activity (Rattus norvegicus [12]): Active; Activity (Rattus norvegicus [13]): Active; Activity (Rattus norvegicus [14]): inactive; Activity (Rattus norvegicus [15]): inactive; Activity (Rattus norvegicus [16]): Active; Activity (Rattus norvegicus [17]): Active; Activity (Rattus norvegicus [18]): Active; Activity (Rattus norvegicus [19]): Active; Activity (Rattus norvegicus [20]): Active; Activity (Rattus norvegicus [21]): Active; Activity (Rattus norvegicus [22]): Active; Activity (Rattus norvegicus [23]): Active; Activity (Rattus norvegicus [24]): Active; Activity (Rattus norvegicus [25]): Active; Activity (Rattus norvegicus [26]): Active; Activity (Rattus norvegicus [27]): Active; Activity (Rattus norvegicus [28]): Active; Activity (Rattus norvegicus [29]): Active; Activity (Rattus norvegicus [30]): Active
O=C(Cn1nc(-c2ccccc2)c(-c2ccccc2)nc1=O)Nc1ccc(Cl)cc1	1.41	> 10	> 10	1.93	–
